Test results reported in patent publication EP4670739A1, “ALBUMIN CONJUGATE, METHOD FOR PRODUCING SAME, AND COMPOSITION FOR TARGETING, DIAGNOSING, OR TREATING CANCER COMPRISING SAME” (Kytecbio Co., Ltd., priority 2023, dated 2024).

Experiment: ROS production according to lysine concentration
Conditions: 10 µM B3 mixed with about 1.0 mM monomeric lysine, PBS pH 7.4, light of about 530 nm
Protocol: • i) 1.0 mM lysine (hereinafter, Lys) was mixed in PBS buffer solution (pH 7.4) and irradiated with light of about 530 nm. The fluorescence generated over time was measured using a Scinco FS-2, and results thereof are shown in FIG. 7A. • ii) The result of mixing 10 µM boron-containing compound B3 instead of the 1.0 mM lysine (Lys) is shown in FIG. 7B, iii) the result of mixing 10 µM boron-containing compound B3 and 0.1 mM lysine (Lys) instead of the 1.0 mM lysine (Lys) is shown in FIG. 7C, and iv) the result of mixing 10 µM boron-containing compound B3 and 1.0 mM lysine (Lys) instead of the 1.0 mM lysine (Lys) is shown in FIG. 7D.

In the case of `O=Cc1cc2ccccc2cc1NCc1ccccc1B(O)O` [B3], the “reactive oxygen species generated” value is reported as “relatively large amount”.
